Measurements from patent publication US20250188078A1, “SMALL MOLECULE INHIBITORS OF THE CRL4 UBIQUITIN LIGASE” (Cornell University, priority 2022, published 2025).

Target: DDB1-BPB (Homo sapiens (Human), UniProt Q16531)
Test: Surface Plasmon Resonance (SPR) binding to DDB1-BPB
Settings: DDB1-BPB immobilized
From the text: Kd represents dissociation constant, which measures the affinity of small molecule binding to the scaffold DDB1-BPB by Surface Plasmon Resonance (SPR) (https://www.bio-rad.com/webroot/web/pdf/lsr/literature/Bulletin_6414.pdf, hereby incorporated by reference in its entirety) (see Table 1, column 8). To assess the interaction between DDB1-BPB and compounds, a multi-parametric SPR instrument (BioRad ProteON XPR360) was used. DDB1-BPB was immobilized onto the GLH sensor surface in a variety of ways as follows: flow channels were activated in parallel with 1/20 diluted EDC/SNHS. DDB1-BPB was diluted to 0.1 mg/mL in sodium acetate pH 4.5 and directly coupled onto channel for 4 min. Excess reactive esters were blocked with a 5-min injection of 1 M ethanolamine. Mean immobilization levels were 17,000 RU with <2% variation along a strip. One channel was left unmodified to provide an additional reference surface. Next, the binding kinetics of compounds on surfaces was determined in a single injection using a “one-shot” kinetic mode. Typically, compound was prepared as a twofold serial dilution (0, 3.125, 6.25, 12.5, 25, 50 μM) and injected for 60 s at […]. Dissociation was monitored for 800 s. Surfaces were regenerated with multiple 30-s pulses of 60 mM phosphoric acid so that the experiment could be reproduced. All resulting sensor grams were collected and analyzed using the ProteOn manager software.

DDB1-BPB, sequence (Q16531 403-706): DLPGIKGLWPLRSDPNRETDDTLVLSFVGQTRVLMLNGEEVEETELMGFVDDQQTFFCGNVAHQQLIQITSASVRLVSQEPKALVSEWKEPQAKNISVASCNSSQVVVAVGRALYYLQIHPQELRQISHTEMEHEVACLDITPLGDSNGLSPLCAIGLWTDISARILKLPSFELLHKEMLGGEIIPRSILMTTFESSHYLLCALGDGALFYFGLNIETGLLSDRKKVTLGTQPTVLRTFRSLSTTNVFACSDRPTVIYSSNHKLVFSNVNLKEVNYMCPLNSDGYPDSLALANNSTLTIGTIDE

SMILES: CN(c1ccc(-c2nc(C(=O)O)cc3c2[nH]c2cccc(F)c23)cc1)S(=O)(=O)c1ccccc1 [PA99, 5-fluoro-1-(4-(N-methylphenylsulfonamido)phenyl)-9H-pyrido[3,4-b]indole-3-carboxylic acid]
- Kd: 2130 nM
